Measurements reported in patent US9605064B2, “Methods and compositions for treatment of skin disorders” (AbbVie Biotechnology Ltd, priority 2006, dated 2017).
Marks after values point to notes of the source that are not given here.

Assays:
[1] = test system: patients with moderate to severe psoriasis; test: PASI 75 response, pooled Phase II (M02-528), CHAMPION and REVEAL by prior systemic therapy; type: in vivo, human; conditions: for PASI 75 Response: Overall: pooled studies, ITT, missing = nonresponder
Procedure: For the Phase III studies, study investigators collected patient histories of use of systemic psoriasis treatments over lifetime and response to systemic treatments administered within 12 months of study entry (patient recall of response to treatments administered more than 12 months before enrollment was not collected). For the Phase II study, patient histories of use of systemic treatments for psoriasis administered within 12 months of study entry and response to treatment within 12 months were collected. PASI response rates were assessed through Week 12 for the Phase II study and through Week 16 for the Phase III studies. Intention-to-treat analyses were conducted, with patients with missing PASI responses considered non-responders.

[2] = test system: patients with severe psoriasis who were non-responders to high-dosage etanercept; test: Adverse events, open-label adalimumab in non-responders to high-dosage etanercept; type: in vivo, human; conditions: 12 weeks
Procedure: Details on clinical course and adverse events were recorded, along with measurements of PASI and Dermatology Life Quality Index (DLQI) at baseline and Weeks 2, 4, 8, and 12.

[3] = test system: patients with moderate to severe chronic plaque psoriasis; test: Physician's Global Assessment (PGA), Phase II trial with 48-week extension; type: in vivo, human; conditions: for Percentage of Patients Achieving PGA “Clear” or “Almost Clear”: modified ITT, NRI; for PGA “Clear”/“Almost Clear”: after 60 weeks of 40 mg eow
Description: Efficacy outcome measures included PASI and PGA.
The Physician's Global Assessment (PGA), which was used as a clinical endpoint in the trial, was used to determine the MCID for DLQI. The PGA is a seven point scale used to measure disease severity from a physician's evaluation. Scoring under the PGA ranges from 1 (Clear) to 7 (Severe). Categories for the 7-point scale include the following: • Severe: very marked plaque elevation, scaling and/or erythema; • Moderate to severe: marked plaque elevation, scaling and/or erythema; • Moderate: moderate plaque elevation, scaling and/or erythema; • Mild to moderate: intermediate between moderate and mild; • Mild: slight plaque elevation, scaling and/or erythema; • Almost clear: intermediate between mild and clear; and • Clear: no signs of psoriasis (post-inflammatory hypopigmentation or hyperpigmentation could be present). Scoring regions were from 1 (clear) to 7 (severe). PGA was assessed at screening; baseline; week 1; week 2; week 4; week 8; and week 12/early termination; and follow up. The same investigator performed the assessment for each patient throughout the study. Statistical methods were performed according to the following summary. Analyses were performed on blinded data, combining results from all three groups. Changes in the PGA from baseline to week 12 were correlated with changes in DLQI total score.
The PGA is a seven-point scale used to measure the severity of disease at the time of the physician's evaluation. The seven disease categories are: • Severe: very marked plaque elevation, scaling, and/or erythema • Moderate to Severe: marked plaque elevation, scaling, and/or erythema • Moderate: moderate plaque elevation, scaling, and/or erythema • Mild to moderate: intermediate between moderate and mild • Mild: slight plaque elevation, scaling, and/or erythema • Almost Clear: intermediate between mild and clear • Clear: no signs of psoriasis (post-inflammatory hypopigmentation or hyperpigmentation could be present).
The PGA scale is scored from 1 (Clear) to 7 (Severe). The PGA was assessed by the investigator at screening, baseline, and Weeks 1, 2, 4, 8, 12/Early Termination, and the follow-up visit. Each study site was to make every attempt to have the same investigator perform these assessments throughout the study for each patient.
The PGA is a 7-point scale used to measure disease severity from a physician's evaluation. The categories for the 7-point scale include: Severe: very marked plaque elevation, scaling, and/or erythema; Moderate to severe: marked plaque elevation, scaling, and/or erythema; Moderate: moderate plaque elevation, scaling, and/or erythema; Mild to moderate: intermediate between moderate and mild; Mild: slight plaque elevation, scaling, and/or erythema; Almost clear: intermediate between mild and clear; and Clear: no signs of psoriasis (post-inflammatory hypopigmentation or hyperpigmentation could be present). The scoring ranges are from 1 (Clear) to 7 (Severe). PGA was assessed at screening, baseline, Week 1, Week 2, Week 4, Week 8, Week 12/early termination, and follow-up. The same investigator performed this assessment for each patient throughout the study.

[4] = test system: patients with chronic plaque psoriasis; test: Safety, 16-week open-label Phase IIIb trial after suboptimal response to ETN, MTX or NB-UVB
Description: (§1) This 16-week, multicenter, open-label, Phase IIIb trial enrolled patients with chronic plaque psoriasis who were having a suboptimal response to ETN (Physician's Global Assessment [PGA]≧mild with months of therapy, or ≧3 months of therapy and deterioration of efficacy), MTX (PGA≧mild with ≧4 months of therapy), or narrow-band ultraviolet B (NB-UVB) phototherapy (PGA moderate with months of therapy). […] The primary endpoint was the proportion of patients who achieved PGA of clear or minimal at week 16. A secondary endpoint was the proportion achieving ≧1 grade of PGA improvement. Safety was assessed throughout the study. Efficacy analyses were intention to treat, with nonresponder imputation used for missing data. Efficacy and safety results were analyzed overall and for each prior-treatment group.

[5] = test system: patients with moderate to severe plaque psoriasis; test: PASI response and relapse, 12-week open-label weekly therapy then randomized eow or withdrawal; type: in vivo, human
[6] = test system: patients with chronic plaque psoriasis; conditions: in vivo
Description: as §1

[7] = test system: patients with moderate to severe chronic plaque psoriasis; conditions: in vivo
Description: The study was a multi-center, 16-week, randomized controlled Phase III trial. The main inclusion criteria included: • Clinical diagnosis of psoriasis for ≧1 year • Affected body surface area (BSA)≧10% • Psoriasis Area and Severity Index (PASI)≧10 The main exclusion criteria was previous use of MTX or systemic anti-TNF therapy.

[8] = test system: patients with moderate to severe plaque psoriasis; test: PGA, 12-week open-label weekly therapy then randomized eow or withdrawal; type: in vivo, human
[9] = Week 4, open-label 40 mg weekly, missing = non-responder
[10] = Week 8, open-label 40 mg weekly, missing = non-responder
[11] = Week 12, open-label 40 mg weekly, missing = non-responder
[12] = Week 24, randomized at Week 12 to 40 mg eow, missing = non-responder
[13] = open-label 40 mg weekly, Week 12

Adalimumab: a human anti-TNF mAb, described in U.S. Pat. No. 6,090,382 as D2E7 (HUMIRA, Abbott Laboratories)
PASI 75 Response: Overall ([1]; Week 4): 19.4%
PASI 75 Response: Overall ([1]; Week 12): 68.1%
PASI 75 Response: Lack of Response: MTX ([1]; Week 16, patients with prior lack of response to MTX (N = 32)): 65.6% * (N = 32)
PASI 75 Response: Lack of Response: Cyclosporine ([1]; Week 16, patients with prior lack of response to cyclosporine (N = 7)): 71.4% (N = 7)
PASI 75 Response: Lack of Response: Oral PUVA ([1]; Week 16, patients with prior lack of response to oral PUVA (N = 6)): 83.3% (N = 6)
PASI 75 response rate ([1]; overall (n=921), Week 16): 72.1%
PASI 75 response rate ([1]; overall (n=966), Week 4): 19.4%
PASI 75 response rate ([1]; patients who had failed to respond to systemic therapy (n=152), Week 16): 70.4%
PASI 75 response rate ([1]; patients who had failed to respond to systemic therapy (n=160), Week 4): 15.6%
PASI 75 response rate ([1]; patients who had received systemic therapies (n=491), Week 16): 72.7%
PASI 75 response rate ([1]; patients who had received systemic therapies (n=511), Week 4): 21.7%
Serious Adverse Events [2]: No serious adverse events were reported
Percentages of Patients with PGA “Clear” or “Almost Clear” ([3]; Week 12, 40 mg eow (Table 78)): 51%
Percentages of Patients with PGA “Clear” or “Almost Clear” ([3]; Week 12, 40 mg weekly (Table 78)): 81%
Percentage of Patients Achieving PGA “Clear” or “Almost Clear” ([3]; Week 12, adalimumab 40 mg eow): 49* %
Percentage of Patients Achieving PGA “Clear” or “Almost Clear” ([3]; Week 12, adalimumab 40 mg weekly): 76* %
Percentage of Patients Achieving PGA “Clear” or “Almost Clear” ([3]; Week 24, adalimumab 40 mg eow): 64%
Percentage of Patients Achieving PGA “Clear” or “Almost Clear” ([3]; Week 24, adalimumab 40 mg weekly): 72%
Percentage of Patients Achieving PGA “Clear” or “Almost Clear” ([3]; Week 24, placebo/adalimumab 40 mg eow (adalimumab from Week 12)): 45%
Percentage of Patients Achieving PGA “Clear” or “Almost Clear” ([3]; Week 36, adalimumab 40 mg eow): 60%
Percentage of Patients Achieving PGA “Clear” or “Almost Clear” ([3]; Week 36, adalimumab 40 mg weekly): 68%
Percentage of Patients Achieving PGA “Clear” or “Almost Clear” ([3]; Week 36, placebo/adalimumab 40 mg eow (adalimumab from Week 12)): 51%
Percentage of Patients Achieving PGA “Clear” or “Almost Clear” ([3]; Week 60, adalimumab 40 mg eow): 44%
Percentage of Patients Achieving PGA “Clear” or “Almost Clear” ([3]; Week 60, adalimumab 40 mg weekly): 52%
Percentage of Patients Achieving PGA “Clear” or “Almost Clear” ([3]; Week 60, placebo/adalimumab 40 mg eow (adalimumab from Week 12)): 45%
PGA “Clear” or “Almost Clear” ([3]; baseline PASI ≧10 and DLQI >10, 40 mg eow, Week 12): 62 % of Patients
PGA “Clear” or “Almost Clear” ([3]; baseline PASI ≧10 and DLQI >10, 40 mg eow, Week 24): 69 % of Patients
PGA “Clear” or “Almost Clear” ([3]; baseline PASI ≧10 and DLQI >10, 40 mg eow, Week 36): 65 % of Patients
PGA “Clear” or “Almost Clear” ([3]; baseline PASI ≧10 and DLQI >10, 40 mg eow, Week 60): 54 % of Patients
PGA “Clear” or “Almost Clear” ([3]; baseline PASI ≧10 and DLQI >10, 40 mg weekly, Week 12): 70 % of Patients
PGA “Clear” or “Almost Clear” ([3]; baseline PASI ≧10 and DLQI >10, 40 mg weekly, Week 24): 74 % of Patients
PGA “Clear” or “Almost Clear” ([3]; baseline PASI ≧10 and DLQI >10, 40 mg weekly, Week 36): 65 % of Patients
PGA “Clear” or “Almost Clear” ([3]; baseline PASI ≧10 and DLQI >10, 40 mg weekly, Week 60): 52 % of Patients
PGA “Clear” or “Almost Clear” ([3]; baseline PASI ≧10 and DLQI >10, placebo/adalimumab 40 mg eow, Week 24): 33 % of Patients
PGA “Clear” or “Almost Clear” ([3]; baseline PASI ≧10 and DLQI >10, placebo/adalimumab 40 mg eow, Week 36): 44 % of Patients
PGA “Clear” or “Almost Clear” ([3]; baseline PASI ≧10 and DLQI >10, placebo/adalimumab 40 mg eow, Week 60): 39 % of Patients
PGA “Clear” or “Almost Clear” ([3]; dosage escalation group (eow to 40 mg weekly, n = 30), Week 60): 20%
PGA “Clear”/“Almost Clear” ([3]; no prior use): 44%
PGA “Clear”/“Almost Clear” ([3]; prior biologic use): 38%
PGA “Clear”/“Almost Clear” ([3]; prior systemic use): 47%
malignancies ([4]; 16-week trial): no malignancies were reported
patients with >25% worsening in PASI scores ([4]; all patients (2 MTX, 2 ETN)): 2.6%
PASI50 response, Patients (%) [5, 9]: 59%
PASI75 response, Patients (%) [5, 9]: 26%
PASI90 response, Patients (%) [5, 9]: 9%
PASI50 response, Patients (%) [5, 10]: 84%
PASI75 response, Patients (%) [5, 10]: 55%
PASI90 response, Patients (%) [5, 10]: 30%
PASI50 response, Patients (%) [5, 11]: 92%
PASI75 response, Patients (%) [5, 11]: 30%
PASI90 response, Patients (%) [5, 11]: 47%
PASI50, Patients (%) [5, 12]: 78%
PASI75, Patients (%) [5, 12]: 68** %
PASI90, Patients (%) [5, 12]: 47** %
PASI 50 response rate ([5]; open-label 40 mg weekly, Week 2): 28%
PASI 50 response rate [5, 13]: 92%
PASI 75 response [5, 13]: 76.4%
PASI 90 response [5, 13]: 47.3%
patients who achieved ≧PASI 50 responses ([5]; patients exposed to alefacept within the past year, Week 12): 6/6
patients who achieved ≧PASI 50 responses ([5]; patients exposed to efalizumab within the past year, Week 12): 14/15
patients who achieved ≧PASI 50 responses ([5]; patients exposed to etanercept within the past year, Week 12): 12/14
patients who achieved ≧PASI 50 responses ([5]; patients exposed to infliximab within the past year, Week 12): 4/4
serious infection [6]: One subject
Any infectious AE [7]: 51 (48) n (%)
Any infectious SAE [7]: 0 (0) n (%)
PGA “Clear” or “Minimal” [8, 13]: 66%
PGA “Clear” or “Minimal” ([8]; randomized to 40 mg eow at Week 12, Week 24): 54.4%
